From patent US20240025849A1 (MAX DELBRÜCK-CENTRUM FÜR MOLEKULARE MEDIZIN IN DER …, priority 2020, published 2024)
Read-outs that look alike come from different tables or passages of the source.

What was measured:
[1] = test system: primary cultured neonatal microglia; experiment: LPS induced NO release, Griess assay, laboratory scaled setup; assay type: cell-based, mouse; settings: for IC50: Mus musculus, Microglia;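 as to active: compounds at or above the IC50 cutoff were called inactive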
Method: Primary cultured neonatal microglia. For preparation of cultured neonatal microglia, P0-P3 mice were used. 10 brains were extracted, meninges and cerebellum were removed and put on ice with Hank's balanced salt solution (HBSS). The dissected brains were washed 3 times before adding 400 μL trypsin (0.1 mg/L) and DNAse (5 μg/L) in phosphate buffered saline (PBS). After 2 min of incubation with this solution, the reaction was blocked by adding plain medium. After removal of the medium, 1 mg DNAse was added and the cells were mechanically dissociated, with a Pasteur pipette followed by a glass pipette. The cells were centrifuged for 10 min at 129 g at 4° C. The supernatant was discarded. The pellet was resuspended in plain medium and plated (2.5 brains/flask) in Poly-L-Lysine coated flasks. The cells were washed after 2 days with PBS and incubated for another 7 days in plain medium. Afterwards the medium was replaced by plain medium with 33% L929 conditioned medium. After 2 days, cells were harvested by shaking them for 30 min at 150 rpm. The supernatant was centrifuged for 10 min at 129 g at 4° C. The cells were plated into a 96 well plate (100 000 cells/well, 200 μL medium per well). This procedure could be repeated 2 times with a 2 day interval.
Griess assay. Cells were seeded according to the protocols described above, after compounds and stimuli were added, 100 μl of supernatant was transferred into a new 96 well plate and 100 μl freshly mixed Griess reagent were added. Griess reagent was composed of reagent A (100 mg Naphthylethylene in 50 ml aqua dest.) and reagent B (1 g Sulfanilamide, […] H3PO4 (85%) in 44 mL aqua dest.) mixed 1:1. The solution was carefully mixed and the absorbance was determined in a microplate reader at a wavelength of 550 nm.
Dissolved sodium nitrite in plain medium served as a standard. Total amount of nitrite was calculated by a linear regression of the standard curve.
The activity of the compounds listed in column 1 of Table 1 as inhibitors of NO production was compared in murine primary cultured neonatal microglia as described above.

[2] = test system: nNOS; experiment: NOS enzyme activity assay (Eurofins), nNOS; assay type: biochemical; settings: C1: 1 nM and 1 μM; 30 min reaction
Method: (§1) In mammalians NO is produced by the three isoforms of NOS: iNOS, eNOS, and nNOS. To evaluate the direct influence of cl on the different isoforms of NOS, an enzyme activity assay was conducted by Eurofins. C1 was mixed with the enzyme buffer, which included co-factors and substrates and by adding the enzyme the reaction was initiated. After 30 min the reaction was stopped, and NO concentration was measured. The results are normalised to positive control performed without any additional compounds and are presented as percentage in inhibition. […] To test the compounds effect on iNOS a concentration range from […] 5 μM were applied ([…], 1, 10, 100 nM, 1, and 5 μM), and for testing eNOS and nNOS 1 nM and 1 μM were applied.

[3] = test system: iNOS; experiment: NOS enzyme activity assay (Eurofins), iNOS; assay type: biochemical; settings: C1: 1 μM up to 5 μM as printed; 30 min reaction
Method: as §1

[4] = inhibitors of NO production, murine primary cultured neonatal microglia, read-out: IC50
[5] = inhibitors of NO production, murine primary cultured neonatal microglia, read-out: activity class (IC50)
[6] = inhibitors of NO production, murine primary cultured neonatal microglia
[7] = inhibitors of NO production, murine primary cultured neonatal microglia, read-out: active

IC50 [1, 5] [µM]	IC50 [1, 7] [µM]	SMILES	active [1, 6]	also measured
< 10	–	COc1ccc([C@H](NC(=O)[C@@H]2CCCN2C(=O)OCc2ccccc2)C(=O)Nc2cnc(C3CC3)nc2)cc1 [Compound 27, benzyl(S)-2-(((S)-2-((2-cyclopropylpyrimidin-5-yl)amino)-1-(4-methoxyphenyl)-2-oxoethyl)carbamoyl)pyrrolidine-1-carboxylate]	YES	IC50 [1, 4]: 1.91 µM
< 10	–	COc1ccc(NC(=O)[C@@H](NC(=O)[C@@H]2CCCN2C(=O)OC(C)(C)C)c2ccc(OC)cc2)cc1 [Compound 28, tert-butyl (S)-2-(((S)-1-(4-methoxyphenyl)-2-((4-methoxyphenyl)amino)-2-oxoethyl)carbamoyl)pyrrolidine-1-carboxylate]	YES	IC50 [1, 4]: 3.3 µM
< 10	–	COc1ccc(NC(=O)[C@@H](NC(=O)[C@@H]2CCCN2C(=O)OCc2ccccc2)c2ccc(OCCOCCOCCOCCOCCOCCNC(=O)CCCC[C@@H]3SC[C@@H]4NC(=O)N[C@@H]43)cc2)cc1 [Compound 29, benzyl (S)-2-(((S)-2-((4-methoxyphenyl)amino)-2-oxo-1-(4-((19-oxo-23-((3aS,4S,6aR)-2-oxohexahydro-1H-thieno[3,4-d]imidazol-4-yl)-3,6,9,12,15-pentaoxa-18-azatricosyl)oxy)phenyl)ethyl)carbamoyl)pyrrolidine-1-carboxylate]	YES	IC50 [1, 4]: 2.36 µM
< 1	–	COc1ccc(NC(=O)[C@@H](NC(=O)[C@@H]2CCN2C(=O)OCc2ccccc2)c2ccc(OC)cc2)cc1 [Compound 30, benzyl (S)-2-(((S)-1-(4-methoxyphenyl)-2-((4-methoxyphenyl)amino)-2-oxoethyl)carbamoyl)azetidine-1-carboxylate]	YES	–
< 10	–	COc1ccc(NC(=O)[C@@H](NC(=O)[C@@H]2C[C@@H]3CCCC[C@@H]3N2C(=O)OCc2ccccc2)c2ccc(OC)cc2)cc1 [Compound 31, benzyl(2S,3aS,7aS)-2-(((S)-1-(4-methoxyphenyl)-2-((4-methoxyphenyl)amino)-2-oxoethyl)carbamoyl)octahydro-1H-indole-1-carboxylate]	YES	–
< 10	–	COc1ccc(NC(=O)[C@@H](NC(=O)[C@@H]2Cc3ccccc3CN2C(=O)OCc2ccccc2)c2ccc(OC)cc2)cc1 [Compound 32, benzyl (S)-3-(((S)-1-(4-methoxyphenyl)-2-((4-methoxyphenyl)amino)-2-oxoethyl)carbamoyl)-3,4-dihydroisoquinoline-2(1H)-carboxylate]	YES	–
< 0.2	–	COc1ccc(NC(=O)[C@@H](NC(=O)[C@]2(C)CCCN2C(=O)OCc2ccccc2)c2ccc(OC)cc2)cc1 [Compound 33, benzyl (S)-2-(((S)-1-(4-methoxyphenyl)-2-((4-methoxyphenyl)amino)-2-oxoethyl)carbamoyl)-2-methylpyrrolidine-1-carboxylate]	YES	–
< 0.2	–	COc1ccc(NC(=O)[C@@H](NC(=O)[C@@H]2CCCCN2C(=O)OCc2ccccc2)c2ccc(OC)cc2)cc1 [Compound 34, benzyl (S)-2-(((S)-1-(4-methoxyphenyl)-2-((4-methoxyphenyl)amino)-2-oxoethyl)carbamoyl)piperidine-1-carboxylate]	YES	–
–	≥ 10	COc1ccc(NC(=O)[C@@H](NC(=O)[C@@H]2CCCN2CCCc2ccccc2)c2ccc(OC)cc2)cc1 [Compound 39, (S)—N—((S)-1-(4-methoxyphenyl)-2-((4-methoxyphenyl)amino)-2-oxoethyl)-1-(3-phenylpropyl)pyrrolidine-2-carboxamide]	–	–
–	≥ 10	COc1ccc([C@H](NC(=O)[C@@H]2CCCN2C(=O)OCc2ccccc2)C(=O)Nc2cnn(C)c2)cc1 [Compound 40, benzyl (S)-2-(((S)-1-(4-methoxyphenyl)-2-((1-methyl-1H-pyrazol-4-yl)amino)-2-oxoethyl)carbamoyl)pyrrolidine-1-carboxylate]	–	–
–	≥ 10	COc1ccc([C@H](NC(=O)[C@@H]2CCCN2C(=O)OCc2ccccc2)C(=O)Nc2cccc3c2ccn3C)cc1 [Compound 41, benzyl (S)-2-(((S)-1-(4-methoxyphenyl)-2-((1-methyl-1H-indol-4-yl)amino)-2-oxoethyl)carbamoyl)pyrrolidine-1-carboxylate]	–	–
–	≥ 10	COc1ccc([C@H](NC(=O)[C@@H]2CCCN2C(=O)OCc2ccccc2)C(=O)Nc2ccc3c(c2)n(C)c(=O)n3C)cc1 [Compound 42, benzyl (S)-2-(((S)-2-((1,3-dimethyl-2-oxo-2,3-dihydro-1H-benzo[d]imidazol-5-yl)amino)-1-(4-methoxyphenyl)-2-oxoethyl)carbamoyl)pyrrolidine-1-carboxylate]	–	–
–	≥ 10	COc1ccc([C@H](NC(=O)[C@@H]2CCCN2C(=O)OCc2ccccc2)C(=O)Nc2ccccc2)cc1 [Compound 43, benzyl (S)-2-(((S)-1-(4-methoxyphenyl)-2-oxo-2-(phenylamino)ethyl)carbamoyl)pyrrolidine-1-carboxylate]	–	–
–	≥ 10	COc1ccc(NC(=O)[C@@H](NC(=O)[C@@H]2CCCN2)c2ccc(OC)cc2)cc1 [Compound 44]	–	–
–	≥ 10	COc1ccc(NC(=O)[C@@H](NC(=O)[C@@H]2CCCN2C(=O)CCCCCNC(=O)CCCC[C@@H]2SC[C@@H]3NC(=O)N[C@@H]32)c2ccc(OC)cc2)cc1 [Compound 45]	–	–
–	≥ 10	COc1ccc(NC(=O)[C@@H](NC(=O)[C@@H]2CCCN2C(C)=O)c2ccc(OC)cc2)cc1 [Compound 47]	–	–
–	≥ 10	COc1ccc([C@H](NC(=O)[C@@H]2CCCN2C(=O)OCc2ccccc2)C(=O)Nc2ccc3nncn3c2)cc1 [Compound 48]	–	–
–	≥ 10	COc1ccc([C@H](NC(=O)[C@@H]2CCCN2C(=O)OCc2ccccc2)C(=O)Nc2cccnc2)cc1 [Compound 49]	–	–
–	≥ 10	COc1ccc(NC(=O)[C@H](NC(=O)[C@@H]2CCCN2C(=O)OCc2ccccc2)c2ccc(OC)cc2)cc1 [Compound 50, benzyl-(S)-2-(((R)-1-(4-methoxyphenyl)-2-((4-methoxyphenyl)amino)-2-oxoethyl)carbamoyl)-pyrrolidine-1-carboxylate]	–	inhibitory effect in the NO release assay ([1]; FIG. 9): not; IC50 ([1]; 0.002 to 20 μM, FIG. 9, read-out: IC50, LPS induced NO production (stereoisomers)): 40 µM
< 1	–	COc1ccc(NC(=O)[C@@H](NC(=O)[C@@H]2C[C@@H](O)CN2C(=O)CCC2CCCCC2)c2ccc(OC)cc2)cc1 [Compound 53, (2S,4R)-1-(3-cyclohexylpropanoyl)-4-hydroxy-N—((S)-1-(4-methoxyphenyl)-2-((4-methoxyphenyl)amino)-2-oxoethyl)pyrrolidine-2-carboxamide]	YES	–
–	–	CSC(=N)N [S-Methylisothiourea, reference compound]	–	enzymatic activity of nNOS [2]: reduce the enzyme activity as predicted
–	–	CC(=N)NCc1cccc(CN)c1 [W1400, reference compound]	–	enzymatic activity of iNOS [3]: reduce the enzyme activity as predicted
